Results on 39 molecules are retold here after patent US20260035382A1, “COMPOUNDS AS SUMO ACTIVATING ENZYME INHIBITORS” (WIGEN BIOMEDICINE TECHNOLOGY (SHANGHAI) CO., LTD., priority 2022, published 2026).

As a reminder, the IC50 is the point on the concentration scale where inhibition reaches its midpoint.

SAE, sequence (Q9UBT2 whole entry): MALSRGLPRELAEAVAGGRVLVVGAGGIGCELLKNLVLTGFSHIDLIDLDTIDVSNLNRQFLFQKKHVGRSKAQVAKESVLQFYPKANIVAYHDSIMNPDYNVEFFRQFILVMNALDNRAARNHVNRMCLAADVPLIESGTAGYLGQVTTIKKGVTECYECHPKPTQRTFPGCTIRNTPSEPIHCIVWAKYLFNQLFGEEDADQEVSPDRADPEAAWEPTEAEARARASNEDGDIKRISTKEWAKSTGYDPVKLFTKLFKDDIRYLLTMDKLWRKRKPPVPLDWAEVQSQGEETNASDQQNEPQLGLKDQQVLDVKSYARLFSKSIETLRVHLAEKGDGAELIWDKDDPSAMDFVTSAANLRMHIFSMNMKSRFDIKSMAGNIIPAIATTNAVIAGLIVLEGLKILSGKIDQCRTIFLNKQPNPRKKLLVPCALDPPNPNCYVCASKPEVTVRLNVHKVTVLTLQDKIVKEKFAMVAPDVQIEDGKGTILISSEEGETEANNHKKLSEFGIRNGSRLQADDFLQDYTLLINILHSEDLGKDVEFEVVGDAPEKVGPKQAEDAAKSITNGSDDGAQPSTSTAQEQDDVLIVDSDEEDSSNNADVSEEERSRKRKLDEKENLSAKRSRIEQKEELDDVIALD
SAE, sequence (Q9UBE0 whole entry partner): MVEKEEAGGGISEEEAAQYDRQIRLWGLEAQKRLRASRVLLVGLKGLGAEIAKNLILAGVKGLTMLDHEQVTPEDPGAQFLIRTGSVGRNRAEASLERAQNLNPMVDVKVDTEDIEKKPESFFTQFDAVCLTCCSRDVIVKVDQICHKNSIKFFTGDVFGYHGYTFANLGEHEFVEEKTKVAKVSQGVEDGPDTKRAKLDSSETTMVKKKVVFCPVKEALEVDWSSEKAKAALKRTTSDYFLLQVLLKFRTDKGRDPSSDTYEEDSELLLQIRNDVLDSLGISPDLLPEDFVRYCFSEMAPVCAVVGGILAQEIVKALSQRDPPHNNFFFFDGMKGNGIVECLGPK

The first test has as its target SAE (Homo sapiens (Human), UniProt Q9UBT2). The experiment in a line: In vitro inhibitory activity assay against SAE (SUMO-2/3 immunofluorescence in HCT116 cells). Format: cell-based. Conditions: 6 h incubation, class symbols, read-out: SUMO IF IC50. On the procedure:
HCT116 cells were seeded into a 96-well black transparent bottom plate at about 20000/well with 90 μL per well. The cells were incubated at 37° C. overnight for 24 h. The test compounds were 10-fold diluted to give a final concentration, and 10 μL of the diluted compounds was added to each well of the cell culture plate. The mixture was incubated at 37° C. for 6 h. The cells were then washed gently, the culture medium was discarded, and the cells were washed once with 200 μL of 0.1% o PBST. 50 μL of 4% PFA was added to each well, and the cells were immobilized at room temperature for 20 min, and then washed with PBS 2-3 times. 50 μL of 0.2% o Triton X-100 was added to each well, and the cells were left to stand at room temperature for 15 min and washed with 0.1% PBST 3 times. 100 uL of 3% BSA (0.6 g BSA+20 mL PBS) was added to each well, and the mixture was blocked at 37° C. for 30 min. After the blocking was completed, the liquid was removed and a primary antibody (SUMO-2/3 (181H8) Rabbit mAb, 1:400 dilution) was prepared with […]. 30 μL of the diluted primary antibody was added to each well, and the mixture was incubated at 4° C. overnight. The cells were washed 3 times with 200 μL of 0.1% o PBST. A FITC secondary antibody (Fluorescein (FITC)-conjugated Affinipure Goat Anti-Rabbit IgG (H+L), 1:300 dilution) was further prepared with 1% o BSA, and 40 μL of the diluted secondary antibody was added to each well. The mixture was incubated at room temperature in the dark for 2 h, and then the cells were washed 4 times with 0.1% PBST. The fluorescence signal of the sample was detected and compared to the DMSO group, and the inhibition rate and IC50 were calculated.
On to `NS(=O)(=O)OC[C@H]1C[C@@H](Nc2ncncc2C(=O)c2cc3c(s2)CCCC32NCCc3ncc(Cl)cc32)C[C@@H]1O` (stereo partly drawn) [Compound 139], for which the IC50 lay within 0.05 to 0.2 µM.
Regarding `[2H]C1([2H])CN[C@]2(C=Cc3sc(C(=O)c4cncnc4N[C@@H]4C[C@H](COS(N)(=O)=O)[C@@H](O)C4)cc32)c2cc(Cl)ccc21` [Compound 238], the IC50 was no more than 0.05 µM.
Regarding `CC(C)N1Cc2sc(C(=O)c3cncnc3N[C@@H]3C[C@H](COS(N)(=O)=O)[C@@H](O)C3)cc2[C@]2(C1)OCCc1ccc(Cl)cc12` [Compound 273], the IC50 is no more than 0.05 µM.
Same read-out and setting: to `COc1ccc2c(c1)[C@@]1(CCc3sc(C(=O)c4cncnc4N[C@@H]4C[C@H](COS(N)(=O)=O)[C@@H](O)C4)cc31)NCC2` [Compound 225] belongs 0.05 to 0.2 µM; to `NS(=O)(=O)OC[C@H]1C[C@@H](Nc2ncncc2C(=O)c2cc3c(s2)CC[C@]32NCCc3cc(Cl)c(Cl)cc32)C[C@@H]1O` [Compound 229], no more than 0.05 µM.
For the molecule `COc1cc2c(cc1Cl)C1(CCCc3sc(C(=O)c4cncnc4N[C@@H]4C[C@H](COS(N)(=O)=O)[C@@H](O)C4)cc31)NCC2` (stereo partly drawn) [Compound 31], the half-maximal inhibitory concentration (IC50) was in the range of 0.05 to 0.2 µM.
Take `NS(=O)(=O)OC[C@H]1C[C@@H](Nc2ncncc2C(=O)c2cc3c(s2)CC[C@]32OCCc3ccccc32)C[C@@H]1O` [Compound 282]: the 50% inhibitory concentration (IC50) was 0.05 to 0.2 µM.
On to `NS(=O)(=O)OC[C@H]1C[C@@H](Nc2ncncc2C(=O)c2cc3c(s2)C(F)(F)C[C@@]32NCCc3ccc(Cl)cc32)C[C@@H]1O` [Compound 161], for which the IC50 is greater than 0.2 µM.
Turning to `CN1Cc2sc(C(=O)c3cncnc3N[C@@H]3C[C@H](COS(N)(=O)=O)[C@@H](O)C3)cc2[C@]2(C1)OCCc1ccc(F)cc12` [Compound 258], the IC50 is no more than 0.05 µM.
For the molecule `NS(=O)(=O)OC[C@H]1C[C@@H](Nc2ncncc2C(=O)c2cc3c(s2)COCC32NCCc3c(Cl)cc(Cl)cc32)C[C@@H]1O` (stereo partly drawn) [Compound 100], the IC50 fell in the range of 0.05 to 0.2 µM.
Regarding `NS(=O)(=O)OC[C@H]1C[C@@H](Nc2ncncc2C(=O)c2cc3c(s2)CCCC32NCCc3cc(Cl)ncc32)C[C@@H]1O` (stereo partly drawn) [Compound 35], the IC50 was in the range of 0.05 to 0.2 µM.
Still for that read-out and setting: in the case of `NS(=O)(=O)OC[C@H]1C[C@@H](Nc2ncncc2C(=O)c2cc3c(s2)CCCC32NCCc3cc(F)c(Cl)c(F)c32)C[C@@H]1O` (stereo partly drawn) [Compound 32] it was 0.05 to 0.2 µM.
Consider `NS(=O)(=O)OC[C@H]1C[C@@H](Nc2ncncc2C(=O)c2cc3c(s2)C(F)=CC32NCCc3ccc(Cl)cc32)C[C@@H]1O` (stereo partly drawn) [Compound 154], for which the half-maximal inhibitory concentration (IC50) was no more than 0.05 µM.
With `NS(=O)(=O)OC[C@H]1C[C@@H](Nc2ncncc2C(=O)c2cc3c(s2)CCCC32NCCc3ccncc32)C[C@@H]1O` (stereo partly drawn) [Compound 34], the 50% inhibitory concentration (IC50) was in the range of 0.05 to 0.2 µM.
Still for that read-out and setting: in the case of `NS(=O)(=O)OC[C@H]1C[C@@H](Nc2ncncc2C(=O)c2cc3c(s2)COCC32NCCc3cc(F)c(Cl)cc32)C[C@@H]1O` (stereo partly drawn) [Compound 106] it was 0.05 to 0.2 µM; in that of `NS(=O)(=O)OC[C@H]1C[C@@H](Nc2ncncc2C(=O)c2cc3c(s2)OCC32NCCc3ccc(Cl)cc32)C[C@@H]1O` (stereo partly drawn) [Compound 61], 0.05 to 0.2 µM; in that of `NS(=O)(=O)OC[C@H]1C[C@@H](Nc2ncncc2C(=O)c2cc3c(s2)CCCC32OCCc3ccccc32)C[C@@H]1O` (stereo partly drawn) [Compound 244], greater than 0.2 µM.
`NS(=O)(=O)OC[C@H]1C[C@@H](Nc2ncncc2C(=O)c2cc3c(s2)CC[C@]32NCCc3cc(F)c(Cl)cc32)C[C@@H]1O` [Compound 228]: the IC50 was no more than 0.05 µM.
As for `NS(=O)(=O)OC[C@H]1C[C@@H](Nc2ncncc2C(=O)c2cc3c(s2)CCCC32NC(=O)Cc3ccc(Cl)cc32)C[C@@H]1O` (stereo partly drawn) [Compound 163], the half-inhibitory concentration (IC50) was greater than 0.2 µM.
On to `NS(=O)(=O)OC[C@H]1C[C@@H](Nc2ncncc2C(=O)c2cc3c(s2)COCC32NCCc3ccc(Cl)c(Cl)c32)C[C@@H]1O` (stereo partly drawn) [Compound 94], for which the IC50 fell in the range of 0.05 to 0.2 µM.
`NS(=O)(=O)OC[C@H]1C[C@@H](Nc2ncncc2C(=O)c2cc3c(s2)COC[C@]32NCCc3cc(F)c(Cl)cc32)C[C@@H]1O` [Compound 108]: the IC50 was 0.05 to 0.2 µM.
Consider `NS(=O)(=O)OC[C@H]1C[C@@H](Nc2ncncc2C(=O)c2cc3c(s2)CC[C@]32NCCc3ccc(C(F)(F)F)cc32)C[C@@H]1O` [Compound 226], for which the half-maximal inhibitory concentration (IC50) fell in the range of 0.05 to 0.2 µM.
Still for that read-out and setting: to `COc1ccc2c(c1)[C@]1(CCCc3sc(C(=O)c4cncnc4N[C@@H]4C[C@H](COS(N)(=O)=O)[C@@H](O)C4)cc31)NCC2` [Compound 179] belongs greater than 0.2 µM; to `NS(=O)(=O)OC[C@H]1C[C@@H](Nc2ncncc2C(=O)c2cc3c(s2)CSCC32NCCc3ccc(Cl)nc32)C[C@@H]1O` (stereo partly drawn) [Compound 145], 0.05 to 0.2 µM.
In the case of `N#Cc1ccc2c(c1)[C@@]1(CCc3sc(C(=O)c4cncnc4N[C@@H]4C[C@H](COS(N)(=O)=O)[C@@H](O)C4)cc31)OCC2` [Compound 288], the IC50 was no more than 0.05 µM.
Same read-out and setting: in the case of `NS(=O)(=O)OC[C@H]1C[C@@H](Nc2ncncc2C(=O)c2nc3c(s2)CCC[C@@]32NCCc3ccc(Cl)cc32)C[C@@H]1O` [Compound 122] it was greater than 0.2 µM.
Regarding `NS(=O)(=O)OC[C@H]1C[C@@H](Nc2ncncc2C(=O)c2cc3c(s2)CCC[C@@]32NCC3(CC3)c3ccc(Cl)cc32)C[C@@H]1O` [Compound 152], the half-maximal inhibitory concentration (IC50) was greater than 0.2 µM.
For the molecule `N#Cc1ccc2c(c1)[C@]1(CCCc3sc(C(=O)c4cncnc4N[C@@H]4C[C@H](COS(N)(=O)=O)[C@@H](O)C4)cc31)OCC2` [Compound 251], the half-inhibitory concentration (IC50) was greater than 0.2 µM.
Turning to `CCN1Cc2sc(C(=O)c3cncnc3N[C@@H]3C[C@H](COS(N)(=O)=O)[C@@H](O)C3)cc2[C@]2(C1)OCCc1ccc(Cl)cc12` [Compound 267], the IC50 is no more than 0.05 µM.
On to `NS(=O)(=O)OC[C@H]1C[C@@H](Nc2ncncc2C(=O)c2cc3c(s2)CCC32NCCc3ccncc32)C[C@@H]1O` (stereo partly drawn) [Compound 76], for which the IC50 lay within 0.05 to 0.2 µM.
On to `NS(=O)(=O)OC[C@H]1C[C@@H](Nc2ncncc2C(=O)c2cc3c(s2)CSC[C@]32NCCc3ccc(F)cc32)C[C@@H]1O` [Compound 90], for which the IC50 was no more than 0.05 µM.
Regarding `NS(=O)(=O)OC[C@H]1C[C@@H](Nc2ncncc2C(=O)c2cc3c(s2)COC[C@]32NCCc3ccc(Cl)c(Cl)c32)C[C@@H]1O` [Compound 96], the IC50 was 0.05 to 0.2 µM.
Turning to `COc1cc2c(cc1Cl)[C@@]1(CCCc3sc(C(=O)c4cncnc4N[C@@H]4C[C@H](COS(N)(=O)=O)[C@@H](O)C4)cc31)NCC2` [Compound 211], the IC50 fell in the range of 0.05 to 0.2 µM.
On to `NS(=O)(=O)OC[C@H]1C[C@@H](Nc2ncncc2C(=O)c2nc3c(s2)COC[C@@]32NCCc3ccc(Cl)cc32)C[C@@H]1O` [Compound 125], for which the IC50 is greater than 0.2 µM.
The same measure, in the same setting: in the case of `NS(=O)(=O)OC[C@H]1C[C@@H](Nc2ncncc2C(=O)c2cc3c(s2)CCCC32OCCc3ccc(Cl)cc32)C[C@@H]1O` (stereo partly drawn) [Compound 42] it was no more than 0.05 µM.

Still in this test, the particulars now being: 6 h incubation, numeric values, read-out: SUMO IF IC50.
As for `NS(=O)(=O)OC[C@H]1C[C@@H](Nc2ncncc2C(=O)c2cc3c(s2)C=C[C@@]32NCCc3ccc(Cl)cc32)C[C@@H]1O` [Compound 175], the IC50 is greater than 1 µM.
Turning to `NS(=O)(=O)OC[C@H]1C[C@@H](Nc2ncncc2C(=O)c2cc3c(s2)C=C[C@]32NCCc3ccc(Cl)cc32)C[C@@H]1O` [Compound 176], the half-maximal inhibitory concentration (IC50) was found to be 0.0232 µM.
On to `NS(=O)(=O)OC[C@H]1C[C@@H](Nc2ncncc2C(=O)c2cc3c(s2)COC[C@]32NCCc3ccc(F)cc32)C[C@@H]1O` [Compound 18], for which the concentration for half-maximal inhibition (IC50) was 0.104 µM.
For `NS(=O)(=O)OC[C@H]1C[C@@H](Nc2ncncc2C(=O)c2cc3c(s2)CC[C@@]32NCCc3ccc(Cl)cc32)C[C@@H]1O` [Compound 47], the IC50 is greater than 1 µM.
